From patent US20260325658A1 (priority 2022, published 2026)
“Also recorded” adds a separate entry of the source.

How the values were obtained:
Opiate μ = Opiate μ (Homo sapiens, UniProt P35372); format: binding
D2L human dopamine GPCR = D2L human dopamine GPCR (Homo sapiens, UniProt P14416); format: cell-based
[1] = biological target: human delta (DOP) receptor (Homo sapiens, UniProt P41143); format: cell-based
dopamine receptors = conditions: cited from earlier work
[2] = cited from earlier work
Sigma 2 = Sigma 2 (Homo sapiens, UniProt Q5BJF2); conditions: cited from earlier work
Mecp2-null mice = conditions: mouse, in vivo; cited from earlier work
[3] = in vivo; cited from earlier work
patients = conditions: human, in vivo; cited from earlier work
adult patients = conditions: human, in vivo; cited from earlier work
[4] = test system: opioid addiction syndrome; conditions: in vivo; cited from earlier work

Opiate μ, sequence (P35372 whole entry): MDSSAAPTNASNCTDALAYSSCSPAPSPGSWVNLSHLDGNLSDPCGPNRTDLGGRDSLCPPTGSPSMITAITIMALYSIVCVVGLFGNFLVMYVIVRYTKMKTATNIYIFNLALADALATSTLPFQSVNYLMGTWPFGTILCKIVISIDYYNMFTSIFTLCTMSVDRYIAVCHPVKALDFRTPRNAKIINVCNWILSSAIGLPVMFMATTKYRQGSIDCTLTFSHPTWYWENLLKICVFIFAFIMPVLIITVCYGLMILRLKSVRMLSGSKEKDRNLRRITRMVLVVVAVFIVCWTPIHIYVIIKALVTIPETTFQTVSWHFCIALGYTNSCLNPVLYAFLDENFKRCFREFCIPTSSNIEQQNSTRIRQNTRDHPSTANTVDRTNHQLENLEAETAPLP
D2L human dopamine GPCR, sequence (P14416 whole entry): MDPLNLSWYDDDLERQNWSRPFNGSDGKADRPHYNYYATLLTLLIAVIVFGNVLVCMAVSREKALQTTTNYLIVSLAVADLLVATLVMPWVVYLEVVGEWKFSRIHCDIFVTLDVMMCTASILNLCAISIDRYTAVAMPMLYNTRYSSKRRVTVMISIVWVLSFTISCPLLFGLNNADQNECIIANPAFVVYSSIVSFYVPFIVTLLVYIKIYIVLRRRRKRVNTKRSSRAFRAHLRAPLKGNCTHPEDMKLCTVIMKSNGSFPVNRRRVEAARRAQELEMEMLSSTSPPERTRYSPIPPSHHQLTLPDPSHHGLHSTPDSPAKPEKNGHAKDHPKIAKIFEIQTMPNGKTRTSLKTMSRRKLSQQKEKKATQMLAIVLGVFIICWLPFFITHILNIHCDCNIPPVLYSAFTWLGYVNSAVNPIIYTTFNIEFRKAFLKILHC
human delta (DOP) receptor, sequence (P41143 whole entry): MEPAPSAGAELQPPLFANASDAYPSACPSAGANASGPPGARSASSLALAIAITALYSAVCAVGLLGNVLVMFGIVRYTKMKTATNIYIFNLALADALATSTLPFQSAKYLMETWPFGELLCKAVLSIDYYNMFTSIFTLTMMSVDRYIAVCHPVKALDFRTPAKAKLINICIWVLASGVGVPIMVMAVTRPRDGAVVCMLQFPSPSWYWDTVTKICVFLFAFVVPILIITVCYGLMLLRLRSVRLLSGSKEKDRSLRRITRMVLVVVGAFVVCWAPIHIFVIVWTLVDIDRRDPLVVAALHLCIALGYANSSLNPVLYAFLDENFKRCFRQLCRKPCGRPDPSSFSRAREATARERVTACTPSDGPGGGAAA
Sigma 2, sequence (Q5BJF2 whole entry): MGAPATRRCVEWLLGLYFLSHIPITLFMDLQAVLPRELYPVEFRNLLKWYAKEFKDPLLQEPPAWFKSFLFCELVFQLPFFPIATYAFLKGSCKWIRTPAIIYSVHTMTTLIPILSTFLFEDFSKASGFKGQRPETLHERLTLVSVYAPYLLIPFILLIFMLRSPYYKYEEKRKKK

NC1(c2ccccc2Cl)CCCCC1=O (racemic) [NorKetamine, (R,S)-Norketamine]
Opiate μ (Opiate μ): Not active | binding to Opioid u receptors (Opiate μ): does not bind Opioid u receptors | DRD2L Agonist (D2L human dopamine GPCR): Not active | ability to bind dopamine 2 receptors (D2L human dopamine GPCR): does not appear to bind Dopamine 2 receptors | Opiate delta1R (antagonist) [1]: Not active | affinity for / effect on dopamine receptors (dopamine receptors): do not appear to have a direct effect on dopamine receptors | Water Solubility of Free drug [2]: 178 µg/mL

NCCc1c[nH]c2ccccc12 [Tryptamine]
Water Solubility of Free drug [2]: 1340 µg/mL

CNC1(c2ccccc2Cl)CCCCC1=O (stereo not drawn) [Ketamine, 2-(2-chlorophenyl)-2-(methylamino)-cyclohexanone]
concentration at which sigma2 receptors are bound (Sigma 2): mM concentrations | affinity for / effect on dopamine receptors (dopamine receptors): not shown any affinity for dopamine 2 receptors; also recorded: do not appear to have a direct effect on dopamine receptors | efficacy by start of treatment (Mecp2-null mice): Treatment from day 30 was not effective; also recorded: treatment from day 15 showed some efficacy | improved survival (Mecp2-null mice): 50% | survival after treatment (Mecp2-null mice): 50% | half-life [3]: approximately 45 minutes | patients who develop an emergence phenomenon (patients): More than half the patients

NCCc1c[nH]c2ccc(O)cc12 [5HT, 5-hydroxy tryptamine]
Water Solubility of Free drug [2]: 2500 µg/mL

c1ccc(C2(N3CCCCC3)CCCCC2)cc1 [PCP, 1-(1-phencyclohexyl) piperidine]
adult patients presenting with the classic toxidrome of PCP intoxication (adult patients): Over 50%

CC[C@H]1C[C@H]2C[C@H]3c4[nH]c5ccc(OC)cc5c4CCN(C2)[C@@H]13 [Ibogaine]
drug craving and depressive symptoms [4]: decreases drug craving and improves depressive symptoms
